# Experimental data taken from patent US4322339A, “Pharmacologically active peptides” (Eli Lilly and Company, priority 1980, dated 1982).
# Assays:
# [1] = target: T1, enkephalin (δ) receptor (Mus musculus, UniProt P32300); test: mouse vas deferens assay; format: tissue-based; conditions: concentration causing depression of 50% of the electrically evoked contraction; field stimulation 0.15 Hz, 1 msec., 40 V; 37° C.
# T1 construct: from tissue; host or cells: isolated mouse vas deferens (Cox mice, 30-40 g)
# Method: In the mouse vas deferens test, single mouse vas deferens from mature mice (Cox, 30-40 g.) are suspended in 3 ml. of modified Kreb's solution aerated with 95% O2 -5% CO2 and maintained at 37° C. The twitch induced by field stimulation (0.15 Hz, 1 msec., 40 V) is recorded on a polygraph via an isometric transducer. The test compound is added to the bath in 20 to 30 μl. aliquots. A dose-response curve is constructed by cumulative addition of appropriate amounts of the compound to the bath. Comparison of relative agonist potency at the δ receptor is made on the basis of IC50 values (concentration causing depression of 50% of the electrically evoked contraction).
# [2] = tested on: mouse (Cox Standard); test: mouse hot plate test (mouse jump); format: in vivo; conditions: subcutaneous injection, hot plate 52° C., 15 minutes after administration
# T1 sequence (P32300 whole entry): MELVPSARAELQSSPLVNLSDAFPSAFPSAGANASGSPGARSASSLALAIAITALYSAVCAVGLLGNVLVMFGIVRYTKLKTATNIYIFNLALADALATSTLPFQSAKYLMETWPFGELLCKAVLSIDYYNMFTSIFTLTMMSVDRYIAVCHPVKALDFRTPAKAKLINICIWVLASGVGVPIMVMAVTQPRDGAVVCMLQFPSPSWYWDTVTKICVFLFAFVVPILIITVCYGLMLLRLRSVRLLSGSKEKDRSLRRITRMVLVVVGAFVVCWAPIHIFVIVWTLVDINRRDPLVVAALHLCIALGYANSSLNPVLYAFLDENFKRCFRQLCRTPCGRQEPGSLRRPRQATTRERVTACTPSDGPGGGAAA
Structure (SMILES),IC50 [1] [nM],Mouse Jump ED50 ([2]; run using Harlan ND4 mice) [mg/kg],Mouse Jump ED50 ([2]; Cox Standard mice) [mg/kg]
"COc1cccc(C[C@H](NC(=O)CNC(=O)[C@@H](C)NC(=O)[C@@H](N)Cc2ccc(O)cc2)C(=O)N(C)[C@@H](CCSC)C(N)=O)c1 [OMe, L-Tyrosyl-D-alanyl-glycyl-L-m-methoxyphenylalanyl-L-(N^α -methyl)methioninamide]",2.92,0.15,–
"CSCC[C@@H](C(N)=O)N(C)C(=O)[C@H](Cc1cccc(I)c1)NC(=O)CNC(=O)[C@@H](C)NC(=O)[C@@H](N)Cc1ccc(O)cc1 [I, H-L-Tyr-D-Ala-Gly-L-Phe(I)-L-(N-Me)Met-NH2]",2.1,–,–
"CSCC[C@@H](C(N)=O)N(C)C(=O)[C@H](Cc1cccc(C)c1)NC(=O)CNC(=O)[C@@H](C)NC(=O)[C@@H](N)Cc1ccc(O)cc1 [CH3, L-Tyrosyl-D-alanyl-glycyl-L-m-methylphenylalanyl-L-(N^α -methyl)methioninamide]",2.73,–,0.33
"CSCC[C@@H](C(N)=O)N(C)C(=O)[C@H](Cc1cccc(Cl)c1)NC(=O)CNC(=O)[C@@H](C)NC(=O)[C@@H](N)Cc1ccc(O)cc1 [Cl, L-Tyrosyl-D-alanyl-glycyl-L-m-chlorophenylalanyl-L-(N^α -methyl)methioninamide]",0.71,–,0.11
"CSCC[C@@H](C(N)=O)N(C)C(=O)[C@H](Cc1cccc(Br)c1)NC(=O)CNC(=O)[C@@H](C)NC(=O)[C@@H](N)Cc1ccc(O)cc1 [Br, L-Tyrosyl-D-alanyl-glycyl-L-m-bromophenylalanyl-L-(N^α -methyl)methioninamide]",0.49,–,0.36
"CSCC[C@@H](C(N)=O)N(C)C(=O)[C@H](Cc1cccc(C(F)(F)F)c1)NC(=O)CNC(=O)[C@@H](C)NC(=O)[C@@H](N)Cc1ccc(O)cc1 [CF3, L-Tyrosyl-D-alanyl-glycyl-L-m-trifluoro-methylphenylalanyl-L-(N^α-methyl)methioninamide]",1.78,–,0.33
"CSCC[C@@H](C(N)=O)N(C)C(=O)[C@H](Cc1ccccc1)NC(=O)CNC(=O)[C@@H](C)NC(=O)[C@@H](N)Cc1ccc(O)cc1 [H, reference compound]",12.2,–,0.36
